The values that follow come from ChEMBL document CHEMBL1649182, “Binding of faropenem and other beta-lactam agents to penicillin-binding proteins of pneumococci with various beta-lactam susceptibilities” (Antimicrob Agents Chemother, 2009).

The target in assay [1] is T1, Penicillin-binding protein 1A (Streptococcus pneumoniae serotype 4 (strain ATCC BAA-334 / TIGR4), UniProt Q04707).
T1 sequence (Q04707 whole entry): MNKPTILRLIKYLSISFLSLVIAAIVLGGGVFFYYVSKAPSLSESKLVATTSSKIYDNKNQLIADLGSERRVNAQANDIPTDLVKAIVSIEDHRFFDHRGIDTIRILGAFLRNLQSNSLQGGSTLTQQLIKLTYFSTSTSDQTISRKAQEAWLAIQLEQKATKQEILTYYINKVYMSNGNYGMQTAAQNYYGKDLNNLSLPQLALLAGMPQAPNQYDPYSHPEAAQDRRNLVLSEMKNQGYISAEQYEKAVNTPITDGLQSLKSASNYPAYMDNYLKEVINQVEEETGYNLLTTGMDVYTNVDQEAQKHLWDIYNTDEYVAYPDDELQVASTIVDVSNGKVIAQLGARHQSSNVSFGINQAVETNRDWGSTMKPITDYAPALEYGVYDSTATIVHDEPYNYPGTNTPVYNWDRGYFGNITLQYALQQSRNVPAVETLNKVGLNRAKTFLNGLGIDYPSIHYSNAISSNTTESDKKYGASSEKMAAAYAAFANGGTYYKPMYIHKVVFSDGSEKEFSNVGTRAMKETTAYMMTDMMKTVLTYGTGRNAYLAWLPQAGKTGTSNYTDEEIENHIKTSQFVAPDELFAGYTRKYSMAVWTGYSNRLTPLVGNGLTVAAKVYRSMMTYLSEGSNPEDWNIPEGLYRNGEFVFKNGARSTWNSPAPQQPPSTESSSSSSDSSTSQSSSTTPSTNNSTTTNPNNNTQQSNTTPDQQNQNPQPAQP
Kind of assay: Displacement of Biocillin FL from Streptococcus pneumoniae 2527 PBP1A.

For the next assay, the system named is Streptococcus pneumoniae. The assay is described as follows: Antimicrobial activity against Streptococcus pneumoniae serotype 19A. Format: functional.

Each structure is given as a SMILES string. Converted amounts (≈) assume the structure as drawn.

With `CC1(C)S[C@@H]2[C@H](NC(=O)[C@H](N)c3ccc(O)cc3)C(=O)N2[C@H]1C(=O)O` [AMOXICILLIN], the IC50 (usually the concentration at which inhibition is half-maximal) in assay [1] was 0.134 µM. The same measure, in the same setting: the result for `CO/N=C(\C(=O)N[C@@H]1C(=O)N2C(C(=O)O)=C(COC(N)=O)CS[C@H]12)c1ccco1` [CEFUROXIME] reads 0.0141 µM. Compound `C[C@@H](O)[C@H]1C(=O)N2C(C(=O)O)=C([C@H]3CCCO3)S[C@H]12` [FAROPENEM] gave a 50% inhibitory concentration (IC50) in assay [1] of 0.0806 µM. Further, the MIC90 – broadly, the lowest concentration that inhibits either 90% of growth or 90% of the strains tested, depending on the study – in the assay with Streptococcus pneumoniae was found to be 1 µg/mL (≈ 3.5 µM). In the case of `C[C@@H](O)[C@H]1C(=O)N2C(C(=O)O)=C(SCCNC=N)C[C@H]12` [IMIPENEM ANHYDROUS], the IC50 in assay [1] was 0.14 µM. The same measure, in the same setting: the result for `CC1(C)S[C@@H]2[C@H](NC(=O)Cc3ccccc3)C(=O)N2[C@H]1C(=O)O` [PENICILLIN G] reads 0.00598 µM.
